Source: ChEMBL document CHEMBL5653607, “KN-62, 1-[N,O-bis(5-isoquinolinesulfonyl)-N-methyl-L-tyrosyl]-4-phenylpiperazi ne, a specific inhibitor of Ca2+/calmodulin-dependent protein kinase II” (J Biol Chem, 1990)
Activity calls are given as the source filed them. The rule behind the calls is not given here.

Assays:
Rattus norvegicus [1] = organism: Rattus norvegicus; assay: Binding affinity to rat brain Ca2+/CaM kinase II in presence of [gamma-33P]ATP by Sepharose coupled chromatography based analysis; assay type: tissue-based
Rattus norvegicus [2] = organism: Rattus norvegicus; assay: Competitive inhibition of rat brain Ca2+/CaM kinase II at 0.5 to 2.5 uM in presence of calmodulin and varying concentration of [gamma-33P]ATP; assay type: tissue-based; details: dose 0.5-2.5 µM
[3] = Inhibition of rat brain Ca2+/CaM kinase II autophosphorylation assessed as incorporation of 32P into myosin kDa light chain measured at Pi/mg enzyme at 50 uM incubated for 1 min in presence of [gamma-33P]ATP
[4] = Competitive inhibition of rat brain Ca2+/CaM kinase II assessed as inhibition constant in presence of [gamma-33P]ATP and varying concentration of calmodulin; assay type: tissue-based
Rattus norvegicus [5] = organism: Rattus norvegicus; assay: Inhibition of rat brain Ca2+/CaM kinase II autophosphorylation assessed as decrease in exogenous substrate phosphorylation at 50 uM incubated for 1 min in presence of [gamma-33P]ATP measured after phosphorylation; assay type: tissue-based
[6] = Inhibition of rat brain Ca2+/CaM kinase II autophosphorylation measured at Pi/mg enzyme after phosphorylation at 50 uM incubated for 5 min in presence of [gamma-33P]ATP
Homo sapiens = organism: Homo sapiens; assay: Inhibition of Ca2+/CaM kinase II (unknown origin) at 1 uM in presence of [gamma-33P]ATP relative to control
[7] = Inhibition of rat brain Ca2+/CaM kinase II autophosphorylation assessed as decrease in exogenous substrate phosphorylation at 50 uM incubated for 1 min in presence of [gamma-33P]ATP relative to control; parameters: scale not given: the % may be the effect or the level left
PC12D [8] = assay: Inhibition of A23187-induced Ca2+/CaM kinase II 40-kDa in [32P] orthophosphate labeled rat PC12D cells assessed as increase in phosphorylation at 0.5 to 1 uM preincubated with compound for 1 hr followed by A23187 induction and measured after 30 mins by immunoprecipitation method; assay type: cell-based; details: dose 0.5-1 µM, time 1.5 hrs
[9] = target: Calcium/calmodulin-dependent protein kinase type II subunit beta (Rattus norvegicus, UniProt P08413); assay: Inhibition of rat brain Ca2+/CaM kinase II beta subunit autophosphorylation measured after 2 mins in presence of [gamma-33P]ATP by SDS-PAGE analysis; assay type: tissue-based
PC12D [10] = assay: Inhibition of A23187-induced Ca2+/CaM kinase II 53-kDa autophosphorylation in [32P] orthophosphate labeled rat PC12D cells preincubated with compound for 1 hr followed by A23187 induction and measured after 30 mins by immunoprecipitation method; assay type: cell-based; details: dose 0.5-1 µM, time 1.5 hrs
[11] = target: cAMP-dependent protein kinase (PKA) (Homo sapiens) (UniProt P22694+P17612+P22612); assay: Inhibition of protein kinase A (unknown origin) at 45 uM relative to control; assay type: protein assay
Gallus gallus = organism: Gallus gallus; assay: Inhibition of chicken gizzard MLC at 45 uM in presence of [gamma-33P]ATP relative to control
[12] = target: Calcium/calmodulin-dependent protein kinase type II subunit alpha (Rattus norvegicus, UniProt P11275); assay: Inhibition of rat brain Ca2+/CaM kinase II alpha subunit autophosphorylation measured after 2 mins in presence of [gamma-33P]ATP by SDS-PAGE analysis; assay type: tissue-based
[13] = Inhibition of rat brain Ca2+/CaM kinase II independent activity assessed as fold increase in enzyme activity at 50 uM incubated for 1 min
[14] = target: Protein kinase C (PKC) (Homo sapiens) (UniProt O94806+P41743+P17252+P05129+Q05655+P05771+Q05513+Q02156+P24723+Q15139+Q04759); assay: Inhibition of protein kinase C (unknown origin) at 45 uM relative to control; assay type: protein assay
PC12D [15] = assay: Inhibition of A23187-induced Ca2+/CaM kinase II 53-kDa in [32P] orthophosphate labeled rat PC12D cells assessed as increase in phosphorylation at 0.5 to 1 uM preincubated with compound for 1 hr followed by A23187 induction and measured after 30 mins by immunoprecipitation method; assay type: cell-based; details: dose 0.5-1 µM, time 1.5 hrs
[16] = Inhibition of Ca2+/CaM kinase II (unknown origin) assessed as inhibition constant; parameters: species or system Homo sapiens
[17] = Inhibition of Ca2+/CaM kinase II (unknown origin); parameters: species or system Homo sapiens
[18] = Inhibition of MLC (unknown origin) assessed as inhibition constant; parameters: species or system Homo sapiens

Calcium/calmodulin-dependent protein kinase type II subunit beta, sequence (P08413 whole entry): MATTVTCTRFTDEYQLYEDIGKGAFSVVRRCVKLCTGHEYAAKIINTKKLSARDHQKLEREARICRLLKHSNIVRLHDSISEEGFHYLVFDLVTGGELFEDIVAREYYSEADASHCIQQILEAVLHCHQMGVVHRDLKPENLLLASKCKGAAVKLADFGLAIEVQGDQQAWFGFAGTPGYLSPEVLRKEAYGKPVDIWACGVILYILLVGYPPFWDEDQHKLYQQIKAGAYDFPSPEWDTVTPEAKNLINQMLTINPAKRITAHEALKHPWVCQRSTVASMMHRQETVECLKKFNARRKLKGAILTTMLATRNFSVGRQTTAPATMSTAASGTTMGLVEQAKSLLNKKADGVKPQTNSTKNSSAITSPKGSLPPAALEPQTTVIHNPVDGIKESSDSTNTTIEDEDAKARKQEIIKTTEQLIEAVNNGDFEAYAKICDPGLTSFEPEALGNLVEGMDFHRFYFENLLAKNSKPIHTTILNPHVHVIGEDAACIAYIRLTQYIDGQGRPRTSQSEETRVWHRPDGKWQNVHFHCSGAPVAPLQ
Calcium/calmodulin-dependent protein kinase type II subunit alpha, sequence (P11275 whole entry): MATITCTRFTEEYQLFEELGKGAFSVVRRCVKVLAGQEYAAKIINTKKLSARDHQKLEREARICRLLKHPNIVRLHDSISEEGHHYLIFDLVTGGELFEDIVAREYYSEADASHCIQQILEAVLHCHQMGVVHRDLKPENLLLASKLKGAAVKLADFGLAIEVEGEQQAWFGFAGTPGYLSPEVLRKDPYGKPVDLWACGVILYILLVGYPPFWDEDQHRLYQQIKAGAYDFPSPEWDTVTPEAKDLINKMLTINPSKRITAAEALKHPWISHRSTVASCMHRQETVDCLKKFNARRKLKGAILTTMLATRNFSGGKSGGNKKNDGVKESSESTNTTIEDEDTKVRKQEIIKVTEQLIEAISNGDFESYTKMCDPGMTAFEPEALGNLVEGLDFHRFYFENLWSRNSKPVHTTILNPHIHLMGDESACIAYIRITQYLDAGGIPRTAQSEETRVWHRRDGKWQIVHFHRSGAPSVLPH

| SMILES | Activity (Rattus norvegicus [1]) | inhibition (Rattus norvegicus [2]) | Activity [3] [nmol] | Ki [4] [µM] | Activity (Rattus norvegicus [5]) | Activity [6] [nmol] | inhibition (Homo sapiens) [%] | Activity [7] [%] | Activity (PC12D [8]) | IC50 [9] [µM] | inhibition (PC12D [10]) | inhibition [11] [%] | inhibition (Gallus gallus) [%] | IC50 [12] [µM] | fold change (FC) [13] | inhibition [14] [%] | Activity (PC12D [15]) | Ki [16] [µM] | IC50 [17] [µM] | Ki [18] [µM] |
| --- | --- | --- | --- | --- | --- | --- | --- | --- | --- | --- | --- | --- | --- | --- | --- | --- | --- | --- | --- | --- |
| CN([C@@H](Cc1ccc(OS(=O)(=O)c2cccc3cnccc23)cc1)C(=O)N1CCN(c2ccccc2)CC1)S(=O)(=O)c1cccc2cnccc12 | Active | inactive | 1.8 | 0.9 | inactive | 8.1 | 80 | 75 | inactive | 1 | Dose-Dependent Effect | 22 | 12 | 0.45 | 2.5 | 12 | Active |  |  |  |
| NCCCCCCNS(=O)(=O)c1cccc2c(Cl)cccc12 |  |  |  |  |  |  |  |  |  |  |  |  |  |  |  |  |  | 7.5 | 15 | 18 |
